From patent publication US20220112187A1, “PYRAZOLOPYRIDINE AMINE COMPOUNDS FOR THE TREATMENT OF AUTOIMMUNE DISEASE” (Hoffmann-La Roche Inc., priority 2018, published 2022)

Each molecule was assayed against T1, human TLR9 (Homo sapiens, UniProt Q9NR96) (assay: HEK293-Blue-hTLR-9 cells assay (SEAP reporter, ODN2006 stimulation)). Settings: HEK293-Blue-hTLR9 cells, ODN2006 ligand, 20 hrs incubation.
T1 sequence (Q9NR96 26-1032): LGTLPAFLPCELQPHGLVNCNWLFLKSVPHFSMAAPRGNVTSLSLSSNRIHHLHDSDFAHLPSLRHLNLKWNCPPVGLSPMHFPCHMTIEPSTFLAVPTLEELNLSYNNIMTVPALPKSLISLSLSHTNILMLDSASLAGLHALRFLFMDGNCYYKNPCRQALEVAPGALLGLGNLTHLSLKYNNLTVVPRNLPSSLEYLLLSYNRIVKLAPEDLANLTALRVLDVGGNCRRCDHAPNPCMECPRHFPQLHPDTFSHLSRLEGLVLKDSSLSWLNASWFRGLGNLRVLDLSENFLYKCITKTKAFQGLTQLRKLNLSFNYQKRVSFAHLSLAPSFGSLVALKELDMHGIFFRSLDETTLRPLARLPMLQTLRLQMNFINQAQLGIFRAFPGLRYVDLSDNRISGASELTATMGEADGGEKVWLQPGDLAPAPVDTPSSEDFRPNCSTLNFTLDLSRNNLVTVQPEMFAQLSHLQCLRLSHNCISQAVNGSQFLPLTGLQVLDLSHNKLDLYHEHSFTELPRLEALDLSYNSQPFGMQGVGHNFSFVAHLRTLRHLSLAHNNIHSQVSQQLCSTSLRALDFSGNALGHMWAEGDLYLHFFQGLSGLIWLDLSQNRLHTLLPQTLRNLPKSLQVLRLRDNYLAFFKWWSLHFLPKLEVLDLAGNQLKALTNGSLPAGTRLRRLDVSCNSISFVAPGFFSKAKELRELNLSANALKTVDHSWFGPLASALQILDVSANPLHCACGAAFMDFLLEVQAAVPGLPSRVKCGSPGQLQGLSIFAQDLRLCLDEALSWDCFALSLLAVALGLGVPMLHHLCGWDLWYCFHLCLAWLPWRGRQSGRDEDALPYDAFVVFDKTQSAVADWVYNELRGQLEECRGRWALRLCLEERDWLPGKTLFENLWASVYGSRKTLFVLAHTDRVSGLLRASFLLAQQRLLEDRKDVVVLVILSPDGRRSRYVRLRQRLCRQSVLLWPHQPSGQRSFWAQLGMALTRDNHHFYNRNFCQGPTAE
Assay type: cell-based
Source text: A stable HEK293-Blue-hTLR-9 cell line was purchased from InvivoGen (Cat. #: hkb-htlr9, San Diego, Calif., USA). These cells were originally designed for studying the stimulation of human TLR9 by monitoring the activation of NF-κB. A SEAP (secreted embryonic alkaline phosphatase) reporter gene was placed under the control of the IFN-β minimal promoter fused to five NF-κB and AP-1-binding sites. The SEAP was induced by activating NF-κB and AP-1 via stimulating HEK-Blue hTLR9 cells with TLR9 ligands. Therefore the reporter expression was declined by TLR9 antagonist under the stimulation of a ligand, such as ODN2006 (Cat. #: tlr1-2006-1, Invivogen, San Diego, Calif., USA), for incubation of 20 hrs. The cell culture supernatant SEAP reporter activity was determined using QUANTI-Blue™ kit (Cat. #: rep-qb1, Invivogen, San Diego, Calif., USA) at a wavelength of 640 nm, a detection medium that turns purple or blue in the presence of alkaline phosphatase.
HEK293-Blue-hTLR9 cells were incubated at a density of 250,000˜450,000 cells/mL in a volume of 170 μL in a 96-well plate in Dulbecco's Modified Eagle's medium (DMEM) containing 4.5 g/L glucose, 50 U/mL penicillin, […], […], 2 mM L-glutamine, 10% (v/v) heat-inactivated fetal bovine serum with addition of 20 μL test compound in a serial dilution in the presence of final DMSO at 1% and 10 μL of 20 uM ODN2006 in above DMEM, perform incubation under 37° C. in a CO2 incubator for 20 hrs. Then 20 μL of the supernatant from each well was incubated with 180 μL Quanti-blue substrate solution at 37° C. for 2 hrs and the absorbance was read at 620-655 nm using a spectrophotorneter. The signalling pathway that TLR9 activation leads to downstream NF-κB activation has been widely accepted, and therefore similar reporter assay was modified for evaluating TLR9 antagonist.

| Compound | IC50 [nM] |
| --- | --- |
| C[C@@H]1CN(c2ccc(C#N)n3nccc23)C[C@H](CN2C[C@H]3CC[C@@H](N(C)C)[C@H]3C2)O1 (racemic) [Example 75, 4-[(2S,6R)-2-[[4-(dimethylamino)-3,3a,4,5,6,6a-hexahydro-1H-cyclopenta[c]pyrrol-2-yl]methyl]-6-methyl-morpholin-4-yl]pyrazolo[1,5-a]pyridine-7-carbonitrile] | 290 |
| CC1CNCCN1C[C@H]1CN(c2ccc(C#N)n3nccc23)C[C@@H](C)O1 (single isomer, unassigned) [Example 50A] | 16000 |
| CC1CNCCN1C[C@H]1CN(c2ccc(C#N)n3nccc23)C[C@@H](C)O1 (single isomer, unassigned) [Example 50B] | 24000 |
| C[C@@H]1CN(c2ccc(C#N)n3nccc23)C[C@H](CN2CCC(N3CCN(C)CC3)CC2)O1 [Example 1, 4-[(2R,6S)-2-methyl-6-[[4-(4-methylpiperazin-1-yl)-1-piperidyl]methyl]morpholin-4-yl]pyrazolo[1,5-a]pyridine-7-carbonitrile] | 130 |
| C[C@@H]1CN(c2ccc(C#N)n3nccc23)C[C@H](CN2CCC3(CCNCC3)CC2)O1 [Example 3, 4-[(2S,6R)-2-(3,9-diazaspiro[5.5]undecan-3-ylmethyl)-6-methyl-morpholin-4-yl]pyrazolo[1,5-a]pyridine-7-carbonitrile] | 90 |
| C[C@@H]1CN(c2ccc(C#N)n3nccc23)C[C@H](CN2CCC(N3CCCCCC3)CC2)O1 [Example 4, 4-[(2S,6R)-2-[[4-(azepan-1-yl)-1-piperidyl]methyl]-6-methyl-morpholin-4-yl]pyrazolo[1,5-a]pyridine-7-carbonitrile] | 280 |
| C[C@@H]1CN(c2ccc(C#N)n3nccc23)C[C@H](CNC2CCN(C)CC2)O1 [Example 7, 4-[(2R,6S)-2-methyl-6-[[(1-methyl-4-piperidyl)amino]methyl]morpholin-4-yl]pyrazolo[1,5-a]pyridine-7-carbonitrile] | 320 |
| C[C@@H]1CN(c2ccc(C#N)n3nccc23)C[C@H](CN2CCN(C(=O)CN)CC2)O1 [Example 14, 4-[(2S,6R)-2-[[4-(2-aminoacetyl)piperazin-1-yl]methyl]-6-methyl-morpholin-4-yl]pyrazolo[1,5-a]pyridine-7-carbonitrile] | 3000 |
| C[C@@H]1CN(c2ccc(C#N)n3nccc23)C[C@H](CN2CCC(N3CCCCC3)CC2)O1 [Example 16, 4-[(2R,6S)-2-methyl-6-[[4-(1-piperidyl)-1-piperidyl]methyl]morpholin-4-yl]pyrazolo[1,5-a]pyridine-7-carbonitrile] | 520 |
| C[C@@H]1CN(c2ccc(C#N)n3nccc23)C[C@H](CN2CCC3(CCNC3)CC2)O1 [Example 19, 4-[(2S,6R)-2-(2,8-diazaspiro[4.5]decan-8-ylmethyl)-6-methyl-morpholin-4-yl]pyrazolo[1,5-a]pyridine-7-carbonitrile] | 92 |
| C[C@@H]1CN(c2ccc(C#N)n3nccc23)C[C@H](CN2CC3(CCNC3)CC2=O)O1 (stereo partly drawn) [Example 20, 4-[(2R,6R)-2-methyl-6-[(3-oxo-2,7-diazaspiro[4.4]nonan-2-yl)methyl]morpholin-4-yl]pyrazolo[1,5-a]pyridine-7-carbonitrile] | 12000 |
| C[C@@H]1CN(c2ccc(C#N)n3nccc23)C[C@H](CN2CCC3(CCNC3)C2=O)O1 (stereo partly drawn) [Example 21, 4-[(2R,6R)-2-methyl-6-[(1-oxo-2,7-diazaspiro[4.4]nonan-2-yl)methyl]morpholin-4-yl]pyrazolo[1,5-a]pyridine-7-carbonitrile] | 16000 |
| C[C@@H]1CN(c2ccc(C#N)n3nccc23)C[C@H](CN2CC3CNCC3C2)O1 (stereo partly drawn) [Example 22, 4-[(2S,6R)-2-(2,3,3a,4,6,6a-hexahydro-1H-pyrrolo[3,4-c]pyrrol-5-ylmethyl)-6-methyl-morpholin-4-yl]pyrazolo[1,5-a]pyridine-7-carbonitrile] | 180 |
| C[C@@H]1CN(c2ccc(C#N)n3nccc23)C[C@H](CN2CCCC3(CCCNC3)C2)O1 (stereo partly drawn) [Example 23, 4-[(2S,6R)-2-(2,8-diazaspiro[5.5]undecan-2-ylmethyl)-6-methyl-morpholin-4-yl]pyrazolo[1,5-a]pyridine-7-carbonitrile] | 250 |

The remaining lines, values ahead:

| IC50 [nM] | Compound |
| --- | --- |
| 890 | C[C@@H]1CN(c2ccc(C#N)n3nccc23)C[C@H](CN2CCNCC2)O1 [Example 5, 4-[(2R,6S)-2-methyl-6-(piperazin-1-ylmethyl)morpholin-4-yl]pyrazolo[1,5-a]pyridine-7-carbonitrile] |
| 31 | C[C@@H]1CN(c2ccc(C#N)n3nccc23)C[C@H](CN2CCC3(CCNC3)C2)O1 (stereo partly drawn) [Example 6, 4-[(2S,6R)-2-(2,7-diazaspiro[4.4]nonan-2-ylmethyl)-6-methyl-morpholin-4-yl]pyrazolo[1,5-a]pyridine-7-carbonitrile] |
| 80 | C[C@@H]1CN(c2ccc(C#N)n3nccc23)C[C@H](CN2CC3(CCCNC3)C2)O1 [Example 10, 4-[(2S,6R)-2-(2,8-diazaspiro[3.5]nonan-2-ylmethyl)-6-methyl-morpholin-4-yl]pyrazolo[1,5-a]pyridine-7-carbonitrile] |
| 97 | C[C@@H]1CN(c2ccc(C#N)n3nccc23)C[C@H](CN2CC3(CC(N)C3)C2)O1 [Example 11, 4-[(2S,6R)-2-[(6-amino-2-azaspiro[3.3]heptan-2-yl)methyl]-6-methyl-morpholin-4-yl]pyrazolo[1,5-a]pyridine-7-carbonitrile] |
| 200 | C[C@@H]1CN(c2ccc(C#N)n3nccc23)C[C@H](CN2CCC(CN)CC2)O1 [Example 12, 4-[(2S,6R)-2-[[4-(aminomethyl)-1-piperidyl]methyl]-6-methyl-morpholin-4-yl]pyrazolo[1,5-a]pyridine-7-carbonitrile] |
| 270 | C[C@@H]1CN(c2ccc(C#N)n3nccc23)C[C@H](CN2CCC(CCN)CC2)O1 [Example 13, 4-[(2S,6R)-2-[[4-(2-aminoethyl)-1-piperidyl]methyl]-6-methyl-morpholin-4-yl]pyrazolo[1,5-a]pyridine-7-carbonitrile] |
| 23000 | C[C@@H]1CN(c2ccc(C#N)n3nccc23)C[C@H](CN2CCN(C)CC2)O1 [Example 15, 4-[(2R,6S)-2-methyl-6-[(4-methylpiperazin-1-yl)methyl]morpholin-4-yl]pyrazolo[1,5-a]pyridine-7-carbonitrile] |
| 180 | C[C@@H]1CN(c2ccc(C#N)n3nccc23)C[C@H](CN2CCC(N)CC2)O1 [Example 17, 4-[(2S,6R)-2-[(4-amino-1-piperidyl)methyl]-6-methyl-morpholin-4-yl]pyrazolo[1,5-a]pyridine-7-carbonitrile] |
| 89 | C[C@@H]1CN(c2ccc(C#N)n3nccc23)C[C@H](CN2CCC3(CCNCC3)C2)O1 [Example 18, 4-[(2S,6R)-2-(2,8-diazaspiro[4.5]decan-2-ylmethyl)-6-methyl-morpholin-4-yl]pyrazolo[1,5-a]pyridine-7-carbonitrile] |
| 100 | C[C@@H]1CN(c2ccc(C#N)n3nccc23)C[C@H](CN2CC3(CCNCC3)C2)O1 [Example 24, 4-[(2S,6R)-2-(2,7-diazaspiro[3.5]nonan-2-ylmethyl)-6-methyl-morpholin-4-yl]pyrazolo[1,5-a]pyridine-7-carbonitrile] |
